Consider nine molecules from article PMC7070443, “New Hybrid Pyrazole and Imidazopyrazole Antinflammatory Agents Able to Reduce ROS Production in Different Biological Targets” (Molecules, 2020).

Data set [1] concerns human platelets. As to the kind of experiment: Platelet aggregation inhibition (Born's method, thrombin-stimulated washed platelets). The class given is cell-based. Particulars: Platelet, 0.1 U/mL thrombin, mean +/- SD, at least six experiments in duplicate. As to the method:
(§1) Freshly drawn venous blood from healthy volunteers of the “Centro Trasfusionale, Ospedale San Martino” in Genoa was collected into 130 mM aqueous trisodium citrate anticoagulant solution (9:1). The donors claimed to have not taken drugs known to interfere with platelet function during two weeks prior to blood collection and gave their informed consent. Washed platelets were prepared centrifuging whole blood at 100× g for 20 min. The obtained platelet-rich plasma was then centrifuged at 1100× g for 15 min. Pellet was washed once with pH 5.2 ACD solution (75 mM trisodium citrate, 42 mM citric acid and 136 mM glucose), centrifuged at 1100× g for 15 min and then re-suspended in pH 7.4 Hepes buffer (145 mM NaCl, 5 mM KCl, 1 mM MgSO4, 10 mM glucose, 10 mM HEPES).
Platelet aggregation was performed in a Bio-Data Aggregometer (Bio-Data Corporation, Horsham, PA, USA) according to Born’s method and quantified by the light transmission reached within 6 min at 37 °C. Briefly, washed platelets (3.0 × 10^8/mL) were pre-incubated for 3 min at 37 °C with saline, compound 4 or 5 before the addition of 0.1 U/mL thrombin. The IC50 values were calculated as above detailed.

Data set [2] relates to human platelets. As to the kind of experiment: ROS production inhibition in thrombin-stimulated washed platelets (DCFH-DA, flow cytometry). Particulars: for IC50: washed human platelets, 0.1 U/mL thrombin, DCFH-DA, mean +/- SD, at least six experiments in duplicate; for activity towards ROS production in platelets (in words): human platelets, thrombin stimulated. The class given is cell-based. As to the method: as §1
ROS production was quantified as previously reported by DCFH-DA, a ROS-sensitive probe that yields upon oxidation the fluorescent adduct DCF that is trapped inside the cells. Briefly, washed platelets (1.0 × 10^8/mL), pre-incubated with saline, compounds 4 or 5, for 15 min at 37 °C, were stimulated by 0.1 U/mL thrombin. Incubation was stopped by cooling samples in ice bath and then samples were immediately analyzed in a Merck Millipore Bioscience Guava easyCyte flow cytometer (Merk Millipore, Burlington, MA, USA). The reported IC50 value is the molar concentration of the compound able to obtain 50% inhibition of the […] induced by the agonist and is calculated by the percentage of inhibition that is the inhibition of the […] measured in the presence of the agent compared with that measured in a control sample containing saline, carried out under the same conditions.
(A flow cytometer gives signals particle by particle.)

The structures appear in SMILES notation.

Usually IC50 stands for the point on the concentration scale where inhibition reaches its midpoint. A high value points to weaker potency in that assay. One may read the melting point as the temperature of the solid-liquid transition. `COc1cccc(/C=N/NC(=O)c2cnn3c2NC(c2ccccc2)C3)c1OCc1ccccc1` (centres unmarked) [5j, (E)-N′-(2-(Benzyloxy)-3-(methoxy)benzylidene)-2-phenyl-2,3-dihydro-1H-imidazo[1,2-b]pyrazole-7-carbohydrazide] gave a melting point of 200 to 202 °C. In data set [1], this molecule yielded a concentration for half-maximal inhibition (IC50) of more than 200 µM. This molecule had a half-inhibitory concentration (IC50) in data set [2] (Homo sapiens, Platelet) of more than 200 µM. Also, the “activity towards ROS production in platelets (in words)” value (“activity towards ROS production” for short) in data set [2] is “completely inactive”.

In the case of `COc1cc(/C=N/NC(=O)c2cnn(CC(O)c3ccccc3)c2N)ccc1OC(F)F` (centres unmarked) [4a, (E)-5-Amino-N′-(4-(difluoromethoxy)-3-methoxybenzylidene)-1-(2-hydroxy-2-phenylethyl)-1H-pyrazole-4-carbohydrazide], the melting point was in the range of 119 to 121 °C. 7.6 ± 0.5 µM corresponded to half-maximal inhibition in data set [1] (IC50). In data set [2] (Homo sapiens, Platelet), the IC50 was approximately 10 µM. Half-maximal inhibition in data set [2] (IC50) required 10.1 ± 2.1 µM.

As for `Nc1c(C(=O)N/N=C/c2ccc(OC(F)F)c(Oc3ccccc3)c2)cnn1CC(O)c1ccccc1` (centres unmarked) [4f, (E)-5-Amino-N′-(4-(difluoromethoxy)-3-phenoxybenzylidene)-1-(2-hydroxy-2-phenylethyl)-1H-pyrazole-4-carbohydrazide], the melting point fell in the range of 184 to 186 °C. Further, the IC50 in data set [1] was determined as 9.8 ± 1.7 µM. The molecule also had an IC50 in data set [2] (Homo sapiens, Platelet) of approximately 10 µM. The molecule further registered an IC50 in data set [2] of 8.6 ± 2.2 µM.

Molecule `Nc1c(C(=O)N/N=C/c2ccc(OC(F)F)c(OC3CCCC3)c2)cnn1CC(O)c1ccccc1` (centres unmarked) [4e, (E)-5-Amino-N′-(3-(cyclopentyloxy)-4-(difluoromethoxy)benzylidene)-1-(2-hydroxy-2-phenylethyl)-1H-pyrazole-4-carbohydrazide] showed a melting point of 178 to 180 °C. The molecule further came in with an IC50 in data set [1] of 29.4 ± 4.4 µM. Besides, inhibition in data set [2] (Homo sapiens, Platelet) was half-maximal at 32.8 ± 2.8 µM (IC50).

Consider `COc1cccc(/C=N/NC(=O)c2cnn(CC(O)c3ccccc3)c2N)c1OC1CCCC1` (centres unmarked) [4b, (E)-5-Amino-N′-(2-(cyclopentyloxy)-3-methoxybenzylidene)-1-(2-hydroxy-2-phenylethyl)-1H-pyrazole-4-carbohydrazide], for which the melting point fell in the range of 180 to 181 °C. This molecule gave an IC50 in data set [1] of 64 ± 2.5 µM. In data set [2] (Homo sapiens, Platelet), this molecule had an IC50 of 20.5 ± 2.5 µM.

With `COc1ccc(/C=N/NC(=O)c2cnn3c2N(C(C)=O)C(c2ccccc2)C3)cc1OC1CCCC1` (centres unmarked) [5k, (E)-1-acetyl-N′-(3-(cyclopentyloxy)-4-methoxybenzylidene)-2-phenyl-2,3-dihydro-1H-imidazo[1,2-b]pyrazole-7-carbohydrazide], the melting point is 140 to 141 °C. Further, in data set [1], the concentration for half-maximal inhibition (IC50) is more than 200 µM. This molecule returned a concentration for half-maximal inhibition (IC50) in data set [2] (Homo sapiens, Platelet) of more than 200 µM. The “activity towards ROS production” value in data set [2] is “completely inactive”.

For `COc1cccc(/C=N/NC(=O)c2cnn(CC(O)c3ccccc3)c2N)c1Oc1ccccc1` (centres unmarked) [4i, (E)-5-Amino-1-(2-hydroxy-2-phenylethyl)-N′-(3-methoxy-2-phenoxybenzylidene)-1H-pyrazole-4-carbohydrazide], the melting point is 207 to 209 °C. Moreover, the IC50 in data set [1] was more than 200 µM. The molecule also showed an IC50 in data set [2] (Homo sapiens, Platelet) of more than 200 µM. For the same molecule, the “activity towards ROS production” value in data set [2] was “completely inactive”.

Turning to `CCC(C)Oc1cc(/C=N/NC(=O)c2cnn(CC(O)c3ccccc3)c2N)ccc1OC` (centres unmarked) [4c, (E)-5-Amino-N′-(3-(sec-butoxy)-4-methoxybenzylidene)-1-(2-hydroxy-2-phenylethyl)-1H-pyrazole-4-carbohydrazide], the melting point was in the range of 190 to 193 °C. The same molecule gave a concentration for half-maximal inhibition (IC50) in data set [1] of 57.1 ± 1.6 µM. Also, in data set [2] (Homo sapiens, Platelet), the IC50 came out at 16.7 ± 1.1 µM.

`CCC(C)Oc1cc(/C=N/NC(=O)c2cnn3c2NC(c2ccccc2)C3)ccc1OC` (centres unmarked) [5c, (E)-N′-(3-(sec-Butoxy)-4-methoxybenzylidene)-2-phenyl-2,3-dihydro-1H-imidazo[1,2-b]pyrazole-7-carbohydrazide] had a melting point of 130 to 131 °C. Further, the half-maximal inhibitory concentration (IC50) in data set [1] was determined as 70.9 ± 4 µM. Moreover, the 50% inhibitory concentration (IC50) in data set [2] (Homo sapiens, Platelet) was 71.4 ± 6 µM.
